Where two headings read alike, the source gives them in different places.
How the values were obtained:
MCAS (Ovarian) = test: Cell growth inhibition SRB assay; type: cell-based
Method: (§1) All solutions were prepared in saline (except docetaxel which was made in ethanol). All solutions were stored at −20° C. All values were based on the equivalent drug loading.

DU145 (Prostate) = test: Cell growth inhibition SRB assay; type: cell-based
Method: as §1

PC-3 (Prostate) = test: Cell growth inhibition SRB assay; type: cell-based
Method: as §1

HCT116 (Colon) = test: Cell growth inhibition SRB assay; type: cell-based
Method: as §1

HT29 (Colon) = test: Cell growth inhibition SRB assay; type: cell-based
Method: as §1

H460 (Lung) = test: Cell growth inhibition SRB assay; type: cell-based
Method: as §1

A549 (Lung) = test: Cell growth inhibition SRB assay; type: cell-based
Method: as §1

MDA-MB-231 (Breast) = test: Cell growth inhibition SRB assay; type: cell-based
Method: as §1

A2058 (Melanoma) = test: Cell growth inhibition SRB assay; type: cell-based
Method: as §1

ES2 (Ovarian) = test: Cell growth inhibition SRB assay; type: cell-based
Method: as §1

MDA-MB-231 tumours = test: Xenograft MDA-MB-231 efficacy study; type: in vivo, female Balb/c nude mice
[1] = Pharmacokinetic analysis, plasma half-life after IV administration
Method: The plasma half-lives of tritium labelled docetaxel and the construct from Experiment 8 (c) (prepared using tritium labelled docetaxel) after IV administration into rats were determined (Kaminskas, L. M., Boyd, B. J., Karellas, P., Krippner, G. Y., Lessene, R., Kelly, B and Porter, C. J. H. “The Impact of Molecular Weight and PEG Chain Length on the Systemic Pharmacokinetics of PEGylated Poly-L-Lysine Dendrimers” Molecular Pharm. 2008, 5, 449-463).

[2] = day 16, one day after final dose
Method: The 20 mice were randomised into 5 groups of four mice (mean tumour volume ˜90 mm^3). Animals were eye bled in the morning for baseline blood cell counts and then drug dosing commenced later that day (day 1). […] A second eye bleed was performed on day 11 (Table 7 A-C). Mice were killed one day following the final drug dose (day 16).

[3] = Maximum tolerated dose (MTD) study; type: in vivo, female Balb/c mice; settings: intravenous once weekly for 3 weeks (day 1, 8 and 15)
Method: Groups of female Balb/c mice were administered an intravenous injection of dendrimer (0.1 ml/10 g body weight) or docetaxel (0.05 ml/10 g body weight) once weekly for 3 weeks (day 1, 8 and 15). Mice were weighed daily and watched for signs of toxicity. Animals were monitored for up to 10 days following the final drug dose. Any mice exceeding ethical endpoints (≥20% body weight loss, poor general health) were immediately sacrificed and observations were noted. […] More than twice the dose of docetaxel could be safely administered using drug dendrimer construct compared to docetaxel alone.

[4] = free drug, footnote of Table 1; cited from earlier work
[5] = system: MDA-MB-231 tumour xenografts; test: MDA-MB-231 mouse xenograft breast cancer model, SPL9048 study
Method: (§3) References to amounts dosed in mg/kg for the dendrimeric compounds are to the amounts of cabazitaxel that may theoretically be released by the dendrimers.
(§4) Each of the dendrimers was pre-weighed in glass vials and stored at 20° C. until use, and dissolved in saline immediately prior to dosing. Cabazitaxel was purchased from a commercial supplier.
(§5) Female Balb/c nude mice (age 7 weeks) were inoculated subcutaneously on the flank with 3.5×10^6 MDA-MB-231 cells in PBS:Matrigel (1:1). Mice were weighed and tumours measured twice weekly using electronic callipers. Tumour volume (mm^3) was calculated as length (mm)/2×width (mm)^2.
Mice received a small dish containing a food supplement (mixed with food dust) daily. The experiment was ended on day 113 or earlier if an ethical endpoint was met.

[6] = system: MDA-MB-231 tumour xenografts; test: MDA-MB-231 mouse xenograft breast cancer model, SPL8996, SPL9005 and SPL9006 study
Method: as §3, §4, §5
Mice received a small dish containing a food supplement (mixed with food dust) daily. The experiment was ended on day 150 or earlier if an ethical endpoint was met.

[7] = free cabazitaxel, triphasic PK model; cited from earlier work
[8] = Toxicity studies in rats (neutropenia, hematology, microscopic changes); settings: 2.5 mg/kg
Description: References to amounts dosed in mg/kg for the dendrimeric compound are to the amounts of cabazitaxel that may theoretically be released by the dendrimer.

[9] = Water solubility study on drug loaded dendrimers; type: physicochemical; settings: for Water solubility of dendrimer: deionised water, until full dissolution; for Equivalent drug solubility on dendrimer: water solubility x % drug loading/100
Method: Protocol: To 30 mg of dendrimer (freeze-dried from water) was added 100 μL of deionised water. After mixing for 10 minutes, additional aliquots of water (10-30 μL per addition) were added with vortexing and incubation for 10 mins until full dissolution was obtained. This amount is represented in Table 1 as the water solubility of the dendrimer. The equivalent drug solubility is determined by multiplying the % drug loading/100 and is represented in Table 1 (column 3) as Equivalent drug solubility on dendrimer. Finally, the fold increase is obtained by dividing the Equivalent drug solubility on dendrimer by the solubility of the drug and is represented in Table 1 (column 4).

[10] = Plasma stability study: docetaxel release in mouse plasma; type: in vitro ADME; settings: 37° C.
Method: Protocol: To 0.5 mL of mouse plasma was added 0.1 mL of dendrimer solution (2 mg/mL, drug equivalent in saline). The mixtures were vortexed (30 s) then incubated at 37° C. At various timepoints (0.5, 2.5, 4.5, 22 hours) 0.1 mL aliquots were removed and added to 0.2 mL ACN. The resulting mixtures were vortexed (30 s), centrifuged (10 min, 4° C.) filtered and analysed by HPLC (C8, 3.9×150 mm, 5 μm, wavelength=243 nm, 10 μL injections, gradient: 40-80% ACN/H2O (1-7 min), 80% ACN (7-9 min), 80-40% ACN (9-11 min), 40% ACN (11-15 min), 10 mM ammonium formate, pH 7.40) which when compared against a standard (2 mg//mL) provided the concentration of free docetaxel in the sample.

MCF-7 = test: IC50 using the MTT assay; type: cell-based; settings: 72 hours
Method: (§2) The IC50 using the MTT assay [Wilson, Anne P. (2000). “Chapter 7: Cytotoxicity and viability”. In Masters, John R. W. Animal Cell Culture: A Practical Approach. Vol. 1 (3rd ed.). Oxford: Oxford University Press] was determined against various cancer cell lines after 72 hours.

DU-145 = test: IC50 using the MTT assay; type: cell-based; settings: 72 hours
Method: as §2

HCT-116 = test: IC50 using the MTT assay; type: cell-based; settings: 72 hours
Method: as §2

A549 = test: IC50 using the MTT assay; type: cell-based; settings: 72 hours
Method: as §2

H460 = test: IC50 using the MTT assay; type: cell-based; settings: 72 hours
Method: as §2

A2780 = test: IC50 using the MTT assay; type: cell-based; settings: 72 hours
Method: as §2

PC-3 = test: IC50 using the MTT assay; type: cell-based; settings: 72 hours
Method: as §2

HT-29 = test: IC50 using the MTT assay; type: cell-based; settings: 72 hours
Method: as §2

[11] = Particle sizing using Dynamic Light Scattering; type: physicochemical
[12] = Day 1, i.v. day 1, 8, 15, docetaxel 15 mg/kg, Exp 3 (b) 20 mg/kg, Exp 8 (c) […] mg/kg

CC(=O)O[C@@]12CO[C@@H]1C[C@H](O)[C@@]1(C)C(=O)[C@H](O)C3=C(C)[C@@H](OC(=O)[C@H](O)[C@@H](NC(=O)OC(C)(C)C)c4ccccc4)C[C@@](O)([C@@H](OC(=O)c4ccccc4)[C@H]21)C3(C)C [Docetaxel, reference compound]
GI50 (MCAS (Ovarian); MCAS, 72 hours, equivalent drug loading, average of duplicate): 7 nM
GI50 (DU145 (Prostate); Homo sapiens, DU-145, DU145, 72 hours, equivalent drug loading, average of duplicate): 2.5 nM
GI50 (PC-3 (Prostate); PC-3, 72 hours, equivalent drug loading, average of duplicate): 2.5 nM
GI50 (HCT116 (Colon); Homo sapiens, HCT-116, HCT116, 72 hours, equivalent drug loading, average of duplicate): 0.7 nM
GI50 (HT29 (Colon); Homo sapiens, HT-29, HT29, 72 hours, equivalent drug loading, average of duplicate): 1.5 nM
GI50 (H460 (Lung); Homo sapiens, NCI-H460, H460, 72 hours, equivalent drug loading, average of duplicate): 1.5 nM
GI50 (A549 (Lung); Homo sapiens, A549, 72 hours, equivalent drug loading, average of duplicate): 3.5 nM
GI50 (MDA-MB-231 (Breast); Homo sapiens, MDA-MB-231, 72 hours, equivalent drug loading, average of duplicate): 3.5 nM
GI50 (A2058 (Melanoma); Homo sapiens, A2058, 72 hours, equivalent drug loading, average of duplicate): 2 nM
GI50 (ES2 (Ovarian); ES2, 72 hours, equivalent drug loading, average of duplicate): 5 nM
Mean tumour Volumne mm^3 (sd) (MDA-MB-231 tumours; [12]): 111.94 (6.41), mm^3
Mean tumour Volumne mm^3 (sd) (MDA-MB-231 tumours; Day 9, same doses): 135.57 (18.85), mm^3
Mean tumour Volumne mm^3 (sd) (MDA-MB-231 tumours; Day 19, same doses): 49.92 (11.61), mm^3
Mean tumour Volumne mm^3 (sd) (MDA-MB-231 tumours; Day 29, same doses): 18.81 (2.09), mm^3
Mean tumour Volumne mm^3 (sd) (MDA-MB-231 tumours; Day 40, same doses): 10.75 (1.95), mm^3
Mean tumour Volumne mm^3 (sd) (MDA-MB-231 tumours; Day 61, same doses): 95.94 (33.08), mm^3
Mean tumour Volumne mm^3 (sd) (MDA-MB-231 tumours; Day 81, same doses): 478.67 (169.27), mm^3
Mean tumour Volumne mm^3 (sd) (MDA-MB-231 tumours; Day 100, same doses): 974.83 (302.59), mm^3
half-life ([1]; rat, plasma, iv): < 1 h
Mean Tumour Weights (g) (sd) [2]: 0.048 g
Tolerated dose [3]: 15 mg/kg docetaxel equivalents
solubility of the drug in water [4]: The solubility of docetaxel and in water is 5 μg/mL

CO[C@H]1C(=O)[C@]2(C)[C@@H](OC)C[C@H]3OC[C@@]3(OC(C)=O)[C@H]2[C@H](OC(=O)c2ccccc2)[C@]2(O)C[C@H](OC(=O)[C@H](O)[C@@H](NC(=O)OC(C)(C)C)c3ccccc3)C(C)=C1C2(C)C [cabazitaxel, reference compound]
tumours reaching an ethical tumour volume endpoint by day 98 ([5]; cabazitaxel 9 mg/kg): 9 of 10
tumour regrowth evident by day ([5]; cabazitaxel 9 mg/kg, days 1, 8 and 15): ≤ 43 days
resumption of tumour growth by day ([6]; cabazitaxel 10 mg/kg, days 1, 8 and 22): ≤ 60 days
initial-phase half-life [7]: 4 min
intermediate-phase half-life [7]: 2 h
terminal-phase half-life [7]: 95 h

BHALys[Lys]32[α-DGA-Cabazitaxel]32†[ε-PEG˜2100]32‡ [SPL9048]
antitumour efficacy (tumour response) ([5]; FIG. 1, i.v. days 1, 8 and 15, SPL-9048 9 and 10 mg/kg): complete tumour regression
tolerability ([5]; FIG. 2, body weight): overall well tolerated
survival compared with cabazitaxel ([5]; both doses (9 and 10 mg/kg)): significantly extended survival beyond that of cabazitaxel
toxicity compared to Jevtana®/cabazitaxel [8]: Reduced toxicity

BHALys[Lys]32[α-DGA-DTX]32[ε-PEG1100]32 [Example 3 (b)]
Water solubility of dendrimer [9]: 89 mg/mL
Equivalent drug solubility on dendrimer [9]: 23 mg/mL
GI50 (MCAS (Ovarian)): 7 nM
GI50 (DU145 (Prostate)): 4 nM
GI50 (PC-3 (Prostate)): 4.5 nM
GI50 (HCT116 (Colon)): 1 nM
GI50 (HT29 (Colon)): 2 nM
GI50 (H460 (Lung)): 8 nM
GI50 (A549 (Lung)): 3.5 nM
GI50 (MDA-MB-231 (Breast)): 0.5 nM
GI50 (A2058 (Melanoma)): 2 nM
GI50 (ES2 (Ovarian)): 4 nM
Mean tumour Volumne mm^3 (sd) (MDA-MB-231 tumours; [12]): 111.74 (6.65), mm^3
Mean tumour Volumne mm^3 (sd) (MDA-MB-231 tumours; Day 9, same doses): 84.02 (6.33), mm^3
Mean tumour Volumne mm^3 (sd) (MDA-MB-231 tumours; Day 19, same doses): 28.26 (1.91), mm^3
Mean tumour Volumne mm^3 (sd) (MDA-MB-231 tumours; Day 29, same doses): 10.46 (0.5), mm^3
Mean tumour Volumne mm^3 (sd) (MDA-MB-231 tumours; Day 40, same doses): 5.92 (1.31), mm^3
Mean tumour Volumne mm^3 (sd) (MDA-MB-231 tumours; Day 61, same doses): 4 (0), mm^3
Mean tumour Volumne mm^3 (sd) (MDA-MB-231 tumours; Day 81, same doses): 0.5 (0), mm^3
Mean tumour Volumne mm^3 (sd) (MDA-MB-231 tumours; Day 100, same doses): 0.5 (0), mm^3
Mean tumour Volumne mm^3 (sd) (MDA-MB-231 tumours; Day 120, same doses): 0.37 (0.12), mm^3
Docetaxel release in plasma ([10]; 0.5 hours): 8.5 percentage of total docetaxel
Docetaxel release in plasma ([10]; 2.5 hours): 32.5 percentage of total docetaxel
Docetaxel release in plasma ([10]; 22 hours): 73 percentage of total docetaxel
Mean Tumour Weights (g) (sd) [2]: 0.020 g

BHALys[Lys]32[α-TDA-DTX]32[ε-PEG1100]32 [Example 8 (c)]
Water solubility of dendrimer [9]: 131 mg/mL
Equivalent drug solubility on dendrimer [9]: 41 mg/mL
GI50 (PC-3 (Prostate)): 9.5 nM
GI50 (H460 (Lung)): 7 nM
GI50 (ES2 (Ovarian)): 12 nM
Mean tumour Volumne mm^3 (sd) (MDA-MB-231 tumours; [12]): 111.73 (6.41), mm^3
Mean tumour Volumne mm^3 (sd) (MDA-MB-231 tumours; Day 9, same doses): 108.86 (9.31), mm^3
Mean tumour Volumne mm^3 (sd) (MDA-MB-231 tumours; Day 19, same doses): 30.59 (1.64), mm^3
Mean tumour Volumne mm^3 (sd) (MDA-MB-231 tumours; Day 29, same doses): 11.58 (1.2), mm^3
Mean tumour Volumne mm^3 (sd) (MDA-MB-231 tumours; Day 40, same doses): 5.75 (0.92), mm^3
Mean tumour Volumne mm^3 (sd) (MDA-MB-231 tumours; Day 61, same doses): 4 (0), mm^3
Mean tumour Volumne mm^3 (sd) (MDA-MB-231 tumours; Day 81, same doses): 0.5 (0), mm^3
Mean tumour Volumne mm^3 (sd) (MDA-MB-231 tumours; Day 100, same doses): 1.67 (0.74), mm^3
Mean tumour Volumne mm^3 (sd) (MDA-MB-231 tumours; Day 120, same doses): 16.2 (10.24), mm^3
plasma half-life ([1]; tritium labelled, IV administration into rats): approximately 30 hour
Docetaxel release in plasma ([10]; 0.5 hours): 4.5 percentage of total docetaxel
Docetaxel release in plasma ([10]; 2.5 hours): 13.5 percentage of total docetaxel
Docetaxel release in plasma ([10]; 22 hours): 43 percentage of total docetaxel
Mean Tumour Weights (g) (sd) [2]: 0.033 g

BHALys[Lys]32[α-TDA-DTX]32[ε-PolyPEG2000]32 [Example 19]
Water solubility of dendrimer [9]: 477 mg/mL
Fold increase in drug solubility ([9]; equivalent drug solubility divided by solubility of the drug): 21900
Equivalent drug solubility on dendrimer [9]: 109 mg/mL
IC50 (MCF-7): 6.3 nM
IC50 (DU-145): 15.5 nM
IC50 (HCT-116): 6.5 nM
IC50 (A549): 7.7 nM
IC50 (H460): 23.7 nM
IC50 (A2780): 6.3 nM
IC50 (PC-3): 7.4 nM
IC50 (HT-29): 5.9 nM
particle size, range of concentration dependent averages [11]: 10.9-15.5 nm

N3-PEG24-CO(NPN)[Lys]32[α-TDA-Cabazitaxel]32†[ε-PEG˜1100]32‡ [SPL8996]
tumour regrowth at the conclusion of the study on day 150 ([6]; 28 mg/kg): one tumour in the SPL-8996 group which began to regrow by day 77
